Source: patent publication US6465168B1, “Methods and apparatus for the inactivation of viruses” (priority 1992, dated 2002)
Where two headings read alike, the source gives them in different places. Marks after values point to notes of the source that are not given here.

Columns and labels:
[1] = system: murine-C retrovirus; assay: Critical fluid viral inactivation of murine-C retrovirus in serum, polybrene enhanced titer on NIH3T3 cells; assay type: cell-based
Description: (§1) In its normal operating mode, valves PV-4 and PV-5 are opened and an aliquot of test solution is aseptically introduced through the 3-way valve PV-4 using a sterile syringe and a presterilized loading tube. The 3-way valve PV-4 is then turned so that the critical fluid recycle line communicates with the soaking chamber, and the vent valve PV-5 is closed. PV-1 is then opened, supplying the solvent to the compressor P-1. The compressor is turned on and immediately thereafter valves PV-2 and PV-3 are opened, introducing the critical fluid solvent into the high pressure circulation loop. When operating pressure is attained, the compressor is turned off and valve PV-3 is closed.
(§2) After system stabilization, the circulation pump P-2 is turned on and its speed adjusted, typically to 75% of maximum speed or 6,750 rpm. P-2 draws both the proteinaceous product from the bottom of the soaking chamber and the critical fluid phase from the top of the same unit. The mixture is then pumped counter-clockwise, mixed by static in-line mixer and returned to the soaking chamber. After mixing for a defined residence time, P-2 is turned off. The decompression valve PV-7 is then fully opened to depressurize the soaking chamber and the high pressure circulation loop. The rate of decompression was approximately 500 psig per second when PV-7 is a ¼″ ball valve. By using a back-pressure regulator instead of a ¼″ ball valve as the decompression valve PV-7, the rate of decompression can be controlled. In some experiments, the rate of decompression was controlled to approximately 2,000 psig per minute.
(§3) In the examples described herein, samples of a recombinant murine C-type retrovirus were prepared as follows. […] Clonal cell lines stably expressing the transfected DNA were derived and maintained as virus-producing stocks. By packaging the RNA produced by the transfected DNA into the defective particles, these cells produce infectious particles that are entirely normal with respect to overall structure, stability, and mode of infection, but containing the plasmid-derived rather that the wild type, genetic material (Mann et al., Ibid).
(§4) Because the LNCX sequences contain the antibiotic resistance gene neo and a suitable promoter, infection of cells with the recombinant retrovirus confers upon the cells resistance to the antibiotic Geneticin (G418). Conferral of Geneticin-resistance onto cells and their progeny was therefore used as the property by which virus titers were determined. Specifically, virus stocks were prepared by culturing the virus-producing cells at high density (50% confluence) in fresh culture medium (Dulebecco's modified Eagle's medium supplemented with 10% iron-supplemented calf serum [Hyclone, Inc., Logan, UT], glutamine [1 mM], penicillin [100 U/ml] and streptomycin [100 μg/ml] for 18 hours at 37 C. in a humidified 5% CO2 atmosphere. Culture medium was harvested and passed through a 0.2 micron filter, divided into aliquots, quick frozen using a dry-ice/ethanol bath and stored at −80° C. Immediately before use, samples were warmed in a 37 C. water bath until just thawed and held on ice. Aliquots of a single virus preparation were used for the examples described below.
(§5) After virus-containing samples were mixed with other materials and treated as described in each of the examples, they were returned to ice, and assayed within 8 hours. Titer tests were performed by seeding 35 mm-style culture dishes with a mouse fibroblast line (NIH3T3 cells) in 3 ml of the culture medium described above at a density of 10,000 cells per well the evening before the assay was to be performed. Virus samples were added to the culture medium over the cells at various dilution from 10^0 (undiluted) to 10^−6.

[2] = system: murine C-type retrovirus; assay type: cell-based; details: culture medium; for Titer: control 5,000; for effectiveness in inactivating the retrovirus: supercritical fluid, approximately 3,000 psig and 40° C.
Description: as §1, §2, §3, §4, §5

[3] = runs CFI-28 to CFI-30: 3,000 psig, 41 C., 30 mins, serum
[4] = runs CFI-28 to CFI-30: 3,000 psig, 41 C., 30 mins, serum, polybrene, control 65,000
[5] = runs CFI-33 (Fr-22), CFI-35 (N2): 3,000 psig, 41 C., 60 mins, serum
[6] = runs CFI-33 (Fr-22), CFI-35 (N2): 3,000 psig, 41 C., 60 mins, serum, control 20,000, 5 = detection limit
[7] = run CFI-21: 3,250 psig, 41 C., 30 mins
[8] = run CFI-18: 2,560 psig, 43 C., 30 mins
[9] = run CFI-19: 2,690 psig, 41 C., 5 mins

For `CCC` [C3H8, propane], the “- log10 Reduction” value [1, 3] was 1.4 and the Titer [1, 4] was 2,500 cfu/2.3 ml.
In the case of `FC(F)Cl` [Fr-22, chlorodifluoromethane], the “reduction of viral activity” value ([1]; after 30 minutes of contacting the serum, approximately 3,000 psig and 40° C.) is reported as ~3.2 log orders of magnitude, the “time to eliminate viral activity, within the detection limits of the assay” value ([1]; approximately 3,000 psig and 40° C., serum) is reported as “within five minutes” and the “- log10 Reduction” value ([1]; run CFI-31: 3,000 psig, 40 C., 5 mins, serum) is reported as greater than 3.6. For the same compound, the Titer ([1]; run CFI-31: 3,000 psig, 40 C., 5 mins, serum, control 20,000, 5 = detection limit) was <5* cfu/2.0 ml, the “- log10 Reduction” value ([1]; run CFI-32: 3,000 psig, 40 C., 15 mins, serum) was 3.6 and the Titer ([1]; run CFI-32: 3,000 psig, 40 C., 15 mins, serum, control 20,000) was 5 cfu/2.0 ml. The “- log10 Reduction” value [1, 3] was 3.2, the Titer [1, 4] was 40 cfu/2.3 ml and the “- log10 Reduction” value [1, 5] was greater than 3.6. The Titer [1, 6] was <5* cfu/2.0 ml.
With `N#N` [N2, nitrogen] the “- log10 Reduction” value [2, 7] was 0.2, the Titer [2, 7] was 3,000 cfu/2.3 ml and the “effectiveness in inactivating the retrovirus” value [2] was “relatively ineffective”. The “- log10 Reduction” value [1, 5] was 0.7 and the Titer [1, 6] was 3,750 cfu/2.0 ml.
`[N-]=[N+]=O` [N2O, nitrous oxide] was tested, and the “- log10 Reduction” value [2, 8] was 2.7, the Titer [2, 8] was 10 cfu/2.3 ml and the “- log10 Reduction” value [2, 9] was 2.0. For the same compound, the Titer [2, 9] was 50 cfu/2.3 ml, the “- log10 Reduction” value ([2]; run CFI-20: 3,180 psig, 41 C., 121 mins) was greater than 3.0 and the Titer ([2]; run CFI-20: 3,180 psig, 41 C., 121 mins, 5 = detection limit) was <5* cfu/2.3 ml. For the same compound, the “effectiveness in inactivating the retrovirus” value [2] was “very effective”, the “reduction of virus activity” value ([1]; 3,000 psig and 40° C., residence time 30 minutes, serum (CFI-27)) was 1.4 logs and the “inactivation of the viral population, within the detection limits of the assay” value ([1]; 5,000 psig and 40° C., residence time 30 minutes, serum (CFI-34)) was “inactivated the entire viral population”. The “- log10 Reduction” value ([1]; run CFI-26: 3,000 psig, 60 C., 30 mins, serum) was greater than 4.1, the Titer ([1]; run CFI-26: 3,000 psig, 60 C., 30 mins, serum, polybrene, 40 C. control 65,000, 5 = detection limit) was <5* cfu/2.3 ml and the “- log10 Reduction” value ([1]; run CFI-27: 3,000 psig, 40 C., 30 mins, serum) was 1.4. The Titer ([1]; run CFI-27: 3,000 psig, 40 C., 30 mins, serum, polybrene, control 65,000) was 3,000 cfu/2.3 ml, the “- log10 Reduction” value ([1]; run CFI-34: 5,000 psig, 41 C., 30 mins, serum) was greater than 3.6 and the Titer ([1]; run CFI-34: 5,000 psig, 41 C., 30 mins, serum, control 20,000, 5 = detection limit) was <5* cfu/2.0 ml. The “reduction of effectiveness by the presence of protein” value ([1]; serum (CFI-27) compared with culture medium (CFI-18)) was “one to two orders of magnitude”.
`CCO` [ethanol] was tested, and the “impact on the effect of supercritical nitrous oxide” value ([1]; 2 mole % ethanol cosolvent, approximately 3,000 psig, 40° C., 30 minutes, serum) was “little or no impact” and the “effect on the titer” value ([1]; control without critical fluid, 40° C., 2 mole % ethanol in the serum) was “does not affect the titer”.
